Assay results from US20240092784A1, “CONDENSED HETEROCYCLIC COMPOUND” (NISSAN CHEMICAL CORPORATION, priority 2020, published 2024).

Molecular target: human SPR (Homo sapiens (Human), UniProt P35270)
Test: Evaluation Example 2: Measurement of human SPR inhibitory activity (seven concentrations, sepiapterin absorbance at 420 nm)
Format: biochemical
Settings: Evaluation Example 2, seven concentrations 0.14 nM to 100 nM, 240 minutes at room temperature, read-out: IC50
Procedure, shortened: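 Reactions ran 240 min at room temperature in 100 mM Tris-HCl pH 7.5 with 0.01% BSA. They contained tag-cleaved, E. coli-expressed full-length human SPR (diluted to 150 ng/mL), seven compound concentrations from 0.14 to 100 nM, and sepiapterin/NADPH added as a 120 μM/160 μM solution. Inhibition was calculated from sepiapterin absorbance at 420 nm.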

human SPR, sequence (P35270 whole entry): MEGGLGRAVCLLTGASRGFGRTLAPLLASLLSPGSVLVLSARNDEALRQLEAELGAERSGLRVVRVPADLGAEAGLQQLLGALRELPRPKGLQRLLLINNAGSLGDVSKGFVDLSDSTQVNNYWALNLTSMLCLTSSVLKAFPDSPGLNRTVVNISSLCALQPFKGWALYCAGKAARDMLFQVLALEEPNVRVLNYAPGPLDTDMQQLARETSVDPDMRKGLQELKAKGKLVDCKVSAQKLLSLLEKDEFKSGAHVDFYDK

CC(C)Cn1c(=O)c(C(=O)NC2CC2)c(O)n2ncc(/C=C/C(=O)N(C)CC(F)(F)F)c12 [compound 509, (E)-N-Cyclopropyl-7-hydroxy-4-isobutyl-3-(3-(methyl(2,2,2-trifluoroethyl)amino)-3-oxoprop-1-en-1-yl)-5-oxo-4,5-dihydropyrazolo[1,5-a]pyrimidine-6-carboxamide]
IC50: 0.92 nM

CC(C)Cn1c(=O)c(C(=O)NC2CC2)c(O)n2ncc(/C=C/C(=O)N3CCC[C@H]3CO)c12 [compound 510, (S,E)-N-Cyclopropyl-7-hydroxy-3-(3-(2-(hydroxymethyl)pyrrolidin-1-yl)-3-oxoprop-1-en-1-yl)-4-isobutyl-5-oxo-4,5-dihydropyrazolo[1,5-a]pyrimidine-6-carboxamide]
IC50: 0.85 nM

CC(C)Cn1c(=O)c(C(=O)NC2CC2)c(O)n2ncc(/C=C/C(=O)N3CC4C(C3)C4(F)F)c12 (stereo not shown) [compound 511, (E)-N-Cyclopropyl-3-(3-(6,6-difluoro-3-azabicyclo[3.1.0]hexan-3-yl)-3-oxoprop-1-en-1-yl)-7-hydroxy-4-isobutyl-5-oxo-4,5-dihydropyrazolo[1,5-a]pyrimidine-6-carboxamide]
IC50: 1.07 nM

CC(C)Cn1c(=O)c(C(=O)NC2CC2)c(O)n2ncc(/C=C/C(=O)N3CC[C@H](C(N)=O)C3)c12 [compound 512, (S,E)-3-(3-(3-Carbamoylpyrrolidin-1-yl)-3-oxoprop-1-en-1-yl)-N-cyclopropyl-7-hydroxy-4-isobutyl-5-oxo-4,5-dihydropyrazolo[1,5-a]pyrimidine-6-carboxamide]
IC50: 0.69 nM

CC(C)Cn1c(=O)c(C(=O)NC2CC2)c(O)n2ncc(/C=C/C(=O)N3CC[C@@H](C(N)=O)C3)c12 [compound 513, (R,E)-3-(3-(3-Carbamoylpyrrolidin-1-yl)-3-oxoprop-1-en-1-yl)-N-cyclopropyl-7-hydroxy-4-isobutyl-5-oxo-4,5-dihydropyrazolo[1,5-a]pyrimidine-6-carboxamide]
IC50: 0.75 nM

CC(C)Cn1c(=O)c(C(=O)NC2CC2)c(O)n2ncc(/C=C/C(=O)N3CCS(=O)(=O)CC3)c12 [compound 514, (E)-N-Cyclopropyl-3-(3-(1,1-dioxidothiomorpholino)-3-oxoprop-1-en-1-yl)-7-hydroxy-4-isobutyl-5-oxo-4,5-dihydropyrazolo[1,5-a]pyrimidine-6-carboxamide]
IC50: 0.58 nM

CC(C)Cn1c(=O)c(C(=O)NC2CC2)c(O)n2ncc(/C=C/C(=O)N(C3CC3)C3CC3)c12 [compound 515, (E)-N-Cyclopropyl-3-(3-(dicyclopropylamino)-3-oxoprop-1-en-1-yl)-7-hydroxy-4-isobutyl-5-oxo-4,5-dihydropyrazolo[1,5-a]pyrimidine-6-carboxamide]
IC50: 0.84 nM

CC(C)Cn1c(=O)c(C(=O)NC2CC2)c(O)n2ncc(/C=C/C(=O)N3CCC(=O)C3)c12 [compound 516, (E)-N-Cyclopropyl-7-hydroxy-4-isobutyl-5-oxo-3-(3-oxo-3-(3-oxopyrrolidin-1-yl)prop-1-en-1-yl)-4,5-dihydropyrazolo[1,5-a]pyrimidine-6-carboxamide]
IC50: 0.61 nM

COCCNC(=O)/C=C/c1cnn2c(O)c(C(=O)NC3CC3)c(=O)n(CC(C)C)c12 [compound 517, (E)-N-Cyclopropyl-7-hydroxy-4-isobutyl-3-(3-((2-methoxyethyl)amino)-3-oxoprop-1-en-1-yl)-5-oxo-4,5-dihydropyrazolo[1,5-a]pyrimidine-6-carboxamide]
IC50: 0.57 nM

CC(C)Cn1c(=O)c(C(=O)NC2CC2)c(O)n2ncc(/C=C/C(=O)N(C)CC(C)(C)O)c12 [compound 518, (E)-N-Cyclopropyl-7-hydroxy-3-(3-((2-hydroxy-2-methylpropyl)(methyl)amino)-3-oxoprop-1-en-1-yl)-4-isobutyl-5-oxo-4,5-dihydropyrazolo[1,5-a]pyrimidine-6-carboxamide]
IC50: 0.66 nM
